From ChEMBL document CHEMBL4251553, “Synthesis, anticancer evaluation and pharmacokinetic study of novel 10-O-phenyl ethers of dihydroartemisinin” (Eur J Med Chem, 2017)

Legend:
[1] = system: HL-60; assay: Antiproliferative activity against human HL60 cells after 96 hrs by MTT assay; assay type: functional; conditions: HL-60, 96 h
[2] = system: U-937; assay: Antiproliferative activity against human U937 cells after 96 hrs by MTT assay; assay type: functional; conditions: U-937, 96 h
[3] = system: K562; assay: Antiproliferative activity against human K562 cells after 96 hrs by MTT assay; assay type: functional; conditions: K562, 96 h
[4] = system: NB-4; assay: Antiproliferative activity against human NB4 cells after 96 hrs by MTT assay; assay type: functional; conditions: NB-4, 96 h
[5] = system: PC-3; assay: Antiproliferative activity against human PC3 cells after 96 hrs by MTT assay; assay type: functional; conditions: PC-3, 96 h
[6] = system: LNCaP; assay: Antiproliferative activity against human LNCAP cells after 96 hrs by MTT assay; assay type: functional
[7] = system: MDA-MB-231; assay: Antiproliferative activity against human MDA-MB-231 cells after 96 hrs by MTT assay; assay type: functional; conditions: MDA-MB-231, 96 h
[8] = system: MCF7; assay: Antiproliferative activity against human MCF7 cells after 96 hrs by MTT assay; assay type: functional; conditions: MCF7, 96 h
[9] = system: NCI/ADR-RES; assay: Antiproliferative activity against human MCF7/ADR cells after 96 hrs by MTT assay; assay type: functional
[10] = Selectivity ratio of GI50 for human MCF7 cells to GI50 for human MCF7/ADR cells; assay type: functional
[11] = Apparent terminal half life in Sprague-Dawley rat at 10 mg/kg, iv administered as single dose by LC-MS/MS analysis; assay type: ADME, organism-based; conditions: in vivo, read-out: betat1/2(app) (converted)
[12] = Cmax in Sprague-Dawley rat at 10 mg/kg, iv administered as single dose by LC-MS/MS analysis; assay type: ADME, organism-based; design: dose 10 mg/kg, route intravenous; conditions: in vivo
[13] = AUC (0 to t) in Sprague-Dawley rat at 10 mg/kg, iv administered as single dose by LC-MS/MS analysis; assay type: ADME, organism-based; conditions: in vivo
[14] = AUC (0 to infinity) in Sprague-Dawley rat at 10 mg/kg, iv administered as single dose by LC-MS/MS analysis; assay type: ADME, organism-based; design: dose 10 mg/kg, route intravenous, time infinity; conditions: in vivo
[15] = Apparent volume of distribution in Sprague-Dawley rat at 10 mg/kg, iv administered as single dose by LC-MS/MS analysis; assay type: ADME, organism-based; conditions: in vivo, read-out: Vz
[16] = Apparent clearance in Sprague-Dawley rat at 10 mg/kg, iv administered as single dose by LC-MS/MS analysis; assay type: ADME, organism-based; conditions: in vivo, read-out: CL(app) (converted)
[17] = MRT (0 to infinity) in Sprague-Dawley rat at 10 mg/kg, iv administered as single dose by LC-MS/MS analysis; assay type: ADME, organism-based; conditions: in vivo
[18] = Plasma concentration in Sprague-Dawley rat at 10 mg/kg, iv administered as single dose measured at 0.083 hrs post dosing by LC-MS/MS analysis; assay type: ADME, organism-based
[19] = Plasma concentration in Sprague-Dawley rat at 10 mg/kg, iv administered as single dose measured at 0.25 hrs post dosing by LC-MS/MS analysis; assay type: ADME, organism-based
[20] = Plasma concentration in Sprague-Dawley rat at 10 mg/kg, iv administered as single dose measured at 0.5 hrs post dosing by LC-MS/MS analysis; assay type: ADME, organism-based
[21] = Plasma concentration in Sprague-Dawley rat at 10 mg/kg, iv administered as single dose measured at 1 hr post dosing by LC-MS/MS analysis; assay type: ADME, organism-based
[22] = Plasma concentration in Sprague-Dawley rat at 10 mg/kg, iv administered as single dose measured at 2 hrs post dosing by LC-MS/MS analysis; assay type: ADME, organism-based
[23] = Plasma concentration in Sprague-Dawley rat at 10 mg/kg, iv administered as single dose measured at 4 hrs post dosing by LC-MS/MS analysis; assay type: ADME, organism-based
[24] = Plasma concentration in Sprague-Dawley rat at 10 mg/kg, iv administered as single dose measured at 8 hrs post dosing by LC-MS/MS analysis; assay type: ADME, organism-based
[25] = Plasma concentration in Sprague-Dawley rat at 10 mg/kg, iv administered as single dose measured at 24 hrs post dosing by LC-MS/MS analysis; assay type: ADME, organism-based

SMILES: CC(=O)N1N=C(c2ccc(O[C@H]3O[C@@H]4O[C@@]5(C)CC[C@H]6[C@H](C)CC[C@@H]([C@H]3C)[C@@]46OO5)cc2)CC1c1ccccc1 (stereo not given in full)
- GI50 [1]: 25 nM
- GI50 [2]: 40 nM
- GI50 [3]: 73 nM
- GI50 [4]: 29 nM
- GI50 [5]: 110 nM
- GI50 [6]: 93 nM
- GI50 [7]: 420 nM
- GI50 [8]: 130 nM
- GI50 [9]: 61 nM
- RatioGI50 [10]: 2.1
- half-life [11]: 3.87 h
- Cmax [12]: 2430 ng/mL
- AUC(0-t) [13]: 4140 ng·h/mL
- AUC(0-inf) [14]: 4170 ng·h/mL
- Vd [15]: 13.7 L/kg
- clearance [16]: 41.3 mL/min/kg
- MRT inf [17]: 3.07 h
- concentration at 0.083 h [18]: 2430 ng/mL
- concentration at 0.25 h [19]: 1900 ng/mL
- concentration at 0.5 h [20]: 1260 ng/mL
- concentration at 1 h [21]: 935 ng/mL
- concentration at 2 h [22]: 523 ng/mL
- concentration at 4 h [23]: 224 ng/mL
- concentration at 8 h [24]: 63.9 ng/mL
- concentration at 24 h [25]: 6.73 ng/mL
